What was measured:
eIF4A = target: T1, eIF4A (Homo sapiens, UniProt P60842); details: cited from earlier work
T1 construct: His; gift of Dr. Nadejda Korneeva, Louisiana State University

PPARγ = target: T2, PPARγ (Homo sapiens, UniProt P37231); test: PPARγ reporter (PPRE) luciferase assay in 293T cells; format: cell-based; details: 1 μM 24 hours before 10 μM rosiglitazone or troglitazone 12 hours, FIG. 3D
T2 construct: 293T cells that were transfected with a plasmid (1 μg) expressing a PPARγ reporter gene; endogenous in cells; host or cells: 293T
T2 sequence (P37231 1-505): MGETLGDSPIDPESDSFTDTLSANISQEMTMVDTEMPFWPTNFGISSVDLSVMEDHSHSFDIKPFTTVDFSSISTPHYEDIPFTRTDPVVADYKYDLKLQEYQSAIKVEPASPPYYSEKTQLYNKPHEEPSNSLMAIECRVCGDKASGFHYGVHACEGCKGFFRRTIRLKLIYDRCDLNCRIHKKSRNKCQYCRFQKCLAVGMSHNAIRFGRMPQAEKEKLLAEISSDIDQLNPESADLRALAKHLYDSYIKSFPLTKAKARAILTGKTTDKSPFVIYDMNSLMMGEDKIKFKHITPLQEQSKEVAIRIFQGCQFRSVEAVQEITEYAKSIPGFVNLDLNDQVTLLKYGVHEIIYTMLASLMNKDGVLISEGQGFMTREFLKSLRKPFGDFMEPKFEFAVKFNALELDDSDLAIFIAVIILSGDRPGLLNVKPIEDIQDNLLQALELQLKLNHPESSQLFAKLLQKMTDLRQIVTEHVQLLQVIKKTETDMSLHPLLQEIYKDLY
Procedure: Luciferase assays were performed as described elsewhere (Kim et al., 2005, which is hereby incorporated by reference for all purposes as if fully set forth herein).
293T cells that were transfected with a plasmid (1 μg) expressing a PPARγ reporter gene. After transfection, cells were pretreated or not pretreated with 1 μM of GW9662 for 24 hours, before being treated with 10 μM of rosiglitazone (Rosi) or troglitazone (Tro) for 12 hours. The obtained relative luciferase activities in the cell extracts normalized to a mock-treated control extract are shown in FIG. 3D.

HeLa cells = test: Stress granule (SG) formation in HeLa cells, immunocytochemistry; format: cell-based; details: pretreated with 1 μM for 24 hours, then 50 μM prostaglandin 1 hour, FIG. 3C

T1 sequence (P60842 whole entry): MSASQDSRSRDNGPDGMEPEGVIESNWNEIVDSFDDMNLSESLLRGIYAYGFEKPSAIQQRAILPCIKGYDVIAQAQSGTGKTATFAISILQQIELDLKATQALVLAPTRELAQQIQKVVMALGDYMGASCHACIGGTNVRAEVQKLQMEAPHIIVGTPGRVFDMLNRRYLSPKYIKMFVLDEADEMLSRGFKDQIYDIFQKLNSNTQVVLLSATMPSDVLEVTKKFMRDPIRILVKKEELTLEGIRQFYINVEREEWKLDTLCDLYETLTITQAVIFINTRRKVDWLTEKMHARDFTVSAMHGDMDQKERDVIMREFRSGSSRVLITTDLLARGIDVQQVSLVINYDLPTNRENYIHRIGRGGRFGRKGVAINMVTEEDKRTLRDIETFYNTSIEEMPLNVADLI

| PPARγ-mediated PPRE activation (PPARγ) | SMILES | SG formation (eIF4A; Dang et al., 2006) | Translation (eIF4A; Low et al., 2005) | Effect of pretreatment on SG formation induced by 15d-PGJ2 and PGA1 (HeLa cells) |
| --- | --- | --- | --- | --- |
| – | CC(/C=C/C(C)=C/[C@@H]1Cc2nc(cs2)[C@@H](C)C[C@@H](N)CC(=O)O[C@@H](C)C/C(C)=C/C=C\C(=O)O1)=C\CN(C)C [PatA, pateamine A] | induces formation of SGs independently of eIF2F phosphorylation | could block translation by inactivating eIF4A | – |
| completely blocked | O=C(Nc1ccccc1)c1cc([N+](=O)[O-])ccc1Cl [GW9662] | – | – | had no effect on SG formation induced by 15d-PGJ2 and PGA1 |

Reference: patent US20090023810A1, “METHODS OF TRANSLATION AND/OR INFLAMMATION BLOCKADE” (priority 2007, published 2009)
